Measured values as given in patent US20230113037A1 (Bayer Aktiengesellschaft, priority 2019, published 2023).
Values joined by “and” are separate entries in the source; they are usually repeats but may differ in a detail not shown here. Identical values can stand only once. Like-named read-outs stand apart in the source and are kept apart here.

How the values were obtained:
AHR [1] = biological target: T1, AHR (Homo sapiens, UniProt P35869); assay: In vitro assay 1: antagonism in human cell line (AHR transactivation, firefly luciferase reporter, kynurenic acid prestimulated); format: cell-based; settings: AHR Antagonism Human IC50 [M]
T1 construct: U87 MG glioblastoma cells (ATCC #HTB-14) endogenously expressing AHR; endogenous in cells; host or cells: U87 MG glioblastoma cells (ATCC #HTB-14)
T1 sequence (P35869 11-848): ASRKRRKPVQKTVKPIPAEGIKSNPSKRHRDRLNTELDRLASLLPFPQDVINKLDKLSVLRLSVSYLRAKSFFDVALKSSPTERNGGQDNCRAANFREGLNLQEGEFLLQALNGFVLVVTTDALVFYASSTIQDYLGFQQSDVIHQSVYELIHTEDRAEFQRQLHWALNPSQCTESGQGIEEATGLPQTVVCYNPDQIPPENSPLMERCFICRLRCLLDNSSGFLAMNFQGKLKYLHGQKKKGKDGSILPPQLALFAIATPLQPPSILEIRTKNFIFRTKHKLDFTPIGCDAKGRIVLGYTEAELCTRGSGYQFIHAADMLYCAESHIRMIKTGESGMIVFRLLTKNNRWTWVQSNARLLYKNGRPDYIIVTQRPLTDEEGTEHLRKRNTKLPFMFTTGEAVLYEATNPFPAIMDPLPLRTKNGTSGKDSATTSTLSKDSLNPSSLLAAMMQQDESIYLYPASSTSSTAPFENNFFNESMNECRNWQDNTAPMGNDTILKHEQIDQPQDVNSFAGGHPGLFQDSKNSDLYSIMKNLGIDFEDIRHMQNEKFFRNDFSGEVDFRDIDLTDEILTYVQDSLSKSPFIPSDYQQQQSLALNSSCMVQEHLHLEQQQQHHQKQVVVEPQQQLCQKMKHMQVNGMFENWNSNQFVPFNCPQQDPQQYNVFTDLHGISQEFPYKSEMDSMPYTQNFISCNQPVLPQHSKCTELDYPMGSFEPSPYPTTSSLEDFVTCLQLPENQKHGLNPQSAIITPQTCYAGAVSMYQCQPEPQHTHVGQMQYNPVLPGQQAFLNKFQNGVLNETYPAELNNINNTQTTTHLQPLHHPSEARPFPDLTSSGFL
Summary of the method: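 Antagonism is measured against kynurenic acid prestimulation in U87 MG glioblastoma cells carrying stable DRE-luciferase and Renilla reporters. Positive inhibition control: 150 μM kynurenic acid with 5 μM staurosporine. Values are normalized to controls; repeats are averaged or given as medians.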

AHR [2] = biological target: T2, AHR (Mus musculus, UniProt P30561); assay: In vitro assay 3: antagonism in mouse cell line (AHR transactivation, firefly luciferase reporter, kynurenic acid prestimulated); format: cell-based
T2 sequence (P30561 1-848 P471L/N533S/M589L): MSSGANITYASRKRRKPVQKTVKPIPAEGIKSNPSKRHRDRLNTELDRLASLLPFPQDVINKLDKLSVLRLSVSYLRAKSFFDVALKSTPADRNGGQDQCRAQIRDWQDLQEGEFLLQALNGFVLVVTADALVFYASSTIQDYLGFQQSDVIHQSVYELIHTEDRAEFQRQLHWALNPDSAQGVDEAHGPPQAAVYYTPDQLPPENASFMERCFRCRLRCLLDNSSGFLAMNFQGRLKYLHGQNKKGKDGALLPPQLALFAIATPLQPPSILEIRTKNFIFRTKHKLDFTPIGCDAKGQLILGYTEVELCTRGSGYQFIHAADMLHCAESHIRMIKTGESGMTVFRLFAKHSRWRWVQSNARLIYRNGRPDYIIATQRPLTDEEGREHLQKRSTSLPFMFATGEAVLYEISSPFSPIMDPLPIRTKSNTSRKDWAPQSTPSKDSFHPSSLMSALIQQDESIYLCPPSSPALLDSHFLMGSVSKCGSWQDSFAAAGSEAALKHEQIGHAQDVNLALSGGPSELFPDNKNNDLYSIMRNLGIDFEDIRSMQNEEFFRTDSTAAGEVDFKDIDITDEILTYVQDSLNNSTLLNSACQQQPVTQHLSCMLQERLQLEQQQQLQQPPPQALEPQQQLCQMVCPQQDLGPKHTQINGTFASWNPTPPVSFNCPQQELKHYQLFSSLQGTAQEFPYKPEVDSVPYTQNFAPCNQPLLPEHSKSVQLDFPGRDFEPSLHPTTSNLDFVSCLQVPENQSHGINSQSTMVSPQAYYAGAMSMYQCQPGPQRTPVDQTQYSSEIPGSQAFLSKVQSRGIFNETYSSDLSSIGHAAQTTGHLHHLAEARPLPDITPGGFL
Summary of the method: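 Luminescence from an AHR-dependent DRE-luciferase reporter, stably integrated in mouse cells, quantifies blockade of kynurenic acid-driven activation. Unstimulated cells mark maximal inhibition; normalization uses both control types, and multiply tested compounds carry mean or median values.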

[3] = mouse Hepa 1c1c7 cells, 200 μM kynurenic acid, 20 hours, read-out: AHR Antagonism Mouse IC50
[4] = read-out: AHR Antagonism Mouse IC50, mouse Hepa 1c1c7 cells, 200 μM kynurenic acid, 20 hours
[5] = Hepa 1c1c7 cells, 200 μM kynurenic acid, 20 hours, firefly luciferase reporter, read-out: AHR Antagonism Mouse IC50

Structure (SMILES)	IC50 (AHR [1]) [M]	IC50 (AHR [2]; [3])	IC50 (AHR [2]; [4]) [nM]	IC50 (AHR [1]; firefly luciferase reporter) [M]	IC50 (AHR [2]; [5]) [nM]
COc1ccc(-c2nc3c4c(C5CNC5)cccc4nc(N[C@@H]4CCCCNC4=O)n3n2)cc1 [Example 647, (3R)-3-{[10-(azetidin-3-yl)-2-(4-methoxyphenyl)[1,2,4]triazolo[1,5-c]quinazolin-5-yl]amino}azepan-2-one]	6.34e-06	> 20000 nM and 12800 nM			
CS(=N)(=O)c1ccccc1-c1nc2c3ccccc3nc(N[C@@H]3CCCCNC3=O)n2n1 (single isomer, unassigned) [Example 662]	6.86e-08		70.4		
COc1cccc(-c2nc3c4ccc(F)cc4nc(N[C@@H]4CCCCNC4=O)n3n2)c1 [Example 148, (3R)-3-{[8-fluoro-2-(3-methoxyphenyl)[1,2,4]triazolo[1,5-c]quinazolin-5-yl]amino}azepan-2-one]	8.12e-07	2.41 nM			
CCNC(=O)[C@@H](CC)Nc1nc2c(Br)cccc2c2nc(-c3ccc(Cl)cc3OC(F)F)nn12 [Example 798, (2R)-2-({7-bromo-2-[4-chloro-2-(difluoromethoxy)phenyl][1,2,4]triazolo[1,5-c]quinazolin-5-yl}amino)-N-ethylbutanamide]				7.57e-10	0.811
O=C1NCCCC[C@H]1Nc1nc2ccccc2c2nc(-c3cnn(CCO)c3)nn12 [Example 601, (3R)-3-({2-[1-(2-hydroxyethyl)-1H-pyrazol-4-yl][1,2,4]triazolo[1,5-c]quinazolin-5-yl}amino)azepan-2-one]	2.96e-07	158 nM			
CNCCNC(=O)[C@@H](C)Nc1nc2c(Br)cccc2c2nc(-c3cnn(C)c3)nn12 [Example 989, N^2-[7-bromo-2-(1-methyl-1H-pyrazol-4-yl)[1,2,4]triazolo[1,5-c]quinazolin-5-yl]-N-[2-(methylamino)ethyl]-D-alaninamide]				5.18e-07	399
Cn1nccc1-c1nc2c3cccc(C(F)(F)F)c3nc(N[C@@H]3CCCCNC3=O)n2n1 [Example 808, (3R)-3-{[2-(1-methyl-1H-pyrazol-5-yl)-7-(trifluoromethyl)[1,2,4]triazolo[1,5-c]quinazolin-5-yl]amino}azepan-2-one]				8.12e-10	1.16
O=C1NCCCC[C@H]1Nc1nc2ccccc2c2nc(-c3ccc(Br)cc3OC(F)(F)F)nn12 [Example 440, (3R)-3-({2-[4-bromo-2-(trifluoromethoxy)phenyl][1,2,4]triazolo[1,5-c]quinazolin-5-yl}amino)azepan-2-one]	2.43e-09	0.642 nM			
COc1cccc(-c2nc3c4ccccc4nc(NC4CNCCNC4=O)n3n2)c1 (single isomer, unassigned) [Example 116, 6-{[2-(3-methoxyphenyl)[1,2,4]triazolo[1,5-c]quinazolin-5-yl]amino}-1,4-diazepan-5-one]	2.75e-06	73.3 nM			
CSc1ccc(-c2nc3c4ccccc4nc(N[C@@H]4CCCCNC4=O)n3n2)cc1 [Example 202, (3R)-3-({2-[4-(methylsulfanyl)phenyl][1,2,4]triazolo[1,5-c]quinazolin-5-yl}amino)azepan-2-one]	5.17e-10	0.657 nM			
O=C1NCCCC[C@H]1Nc1nc2ccccc2c2nc(-c3ccc(F)c(F)c3)nn12 [Example 633, (3R)-3-{[2-(3,4-difluorophenyl)[1,2,4]triazolo[1,5-c]quinazolin-5-yl]amino}azepan-2-one]	1.14e-09	0.64 nM			
COc1ccc(-c2nc3c4c(C#N)cccc4nc(N[C@@H]4CCCCNC4=O)n3n2)cc1 [Example 246, 2-(4-methoxyphenyl)-5-{[(3R)-2-oxoazepan-3-yl]amino}[1,2,4]triazolo[1,5-c]quinazoline-10-carbonitrile]	3.32e-09	11.2 nM			
Cc1ccccc1-c1nc2c3ccccc3nc(NC3CNCCNC3=O)n2n1 (single isomer, unassigned) [Example 46, 6-{[2-(2-methylphenyl)[1,2,4]triazolo[1,5-c]quinazolin-5-yl]amino}-1,4-diazepan-5-one]	2.93e-08	5.25 nM			
CCC[C@@H](Nc1nc2ccccc2c2nc(-c3cc(F)ccc3OC(F)(F)F)nn12)C(=O)NC [Example 494, N^2-{2-[5-fluoro-2-(trifluoromethoxy)phenyl][1,2,4]triazolo[1,5-c]quinazolin-5-yl}-N-methyl-D-norvalinamide]	2.28e-07	11.1 nM			
O=C1NCCNC[C@H]1Nc1nc2cccc(C(F)(F)F)c2c2nc(-c3cccc(F)c3)nn12 [Example 288, (6R)-6-{[2-(3-fluorophenyl)-10-(trifluoromethyl)[1,2,4]triazolo[1,5-c]quinazolin-5-yl]amino}-1,4-diazepan-5-one]	> 2e-05		887		
O=C1NCCCCCC1Nc1nc2ccccc2c2nc(-c3cccc(OC(F)(F)F)c3)nn12 (centres unmarked) [Example 447, 3-({2-[3-(trifluoromethoxy)phenyl][1,2,4]triazolo[1,5-c]quinazolin-5-yl}amino)azocan-2-one]	2.27e-08	11.3 nM			
O=C1NCC[C@H]1Nc1nc2ccccc2c2nc(-c3ccsc3)nn12 [Example 342, (3R)-3-{[2-(thiophen-3-yl)[1,2,4]triazolo[1,5-c]quinazolin-5-yl]amino}pyrrolidin-2-one]	2.21e-07	175 nM			
COc1cccc(-c2nc3c4ccc(F)cc4nc(N[C@H]4CCCNC4=O)n3n2)c1 [Example 151, (3S)-3-{[8-fluoro-2-(3-methoxyphenyl)[1,2,4]triazolo[1,5-c]quinazolin-5-yl]amino}piperidin-2-one]	2.36e-06	343 nM			
CCS(=O)(=O)c1cccc2c1nc(N[C@@H]1CNCCNC1=O)n1nc(-c3ccc(OC)cc3)nc21 [Example 940, (6R)-6-{[7-(ethanesulfonyl)-2-(4-methoxyphenyl)[1,2,4]triazolo[1,5-c]quinazolin-5-yl]amino}-1,4-diazepan-5-one]				1.79e-08	57
C[C@@H](Nc1nc2c(Br)cccc2c2nc(-c3cnn(C)c3)nn12)C(=O)NCC(C)(C)N [Example 790, N-(2-amino-2-methylpropyl)-N^2-[7-bromo-2-(1-methyl-1H-pyrazol-4-yl)[1,2,4]triazolo[1,5-c]quinazolin-5-yl]-D-alaninamide]				4.14e-07	402
COc1ccc(-c2nc3c4cccc(C(F)(F)F)c4nc(N[C@@H]4CCCCNC4=O)n3n2)cc1 [Example 204, (3R)-3-{[2-(4-methoxyphenyl)-7-(trifluoromethyl)[1,2,4]triazolo[1,5-c]quinazolin-5-yl]amino}azepan-2-one]	1.15e-09	1.02 nM			
COc1ccc(-c2nc3c4cccc(Br)c4nc(N[C@@H](C(=O)NCCN4CCN(C)CC4)C(C)C)n3n2)cc1 [Example 924, N^2-[7-bromo-2-(4-methoxyphenyl)[1,2,4]triazolo[1,5-c]quinazolin-5-yl]-N-[2-(4-methylpiperazin-1-yl)ethyl]-D-valinamide]				6.71e-09	3.8
